Data on one compound can be found in patent publication US5145783A, “Glyphosate-tolerant 5-endolpyruvyl-3-phosphoshikimate synthase” (Monsanto Company, priority 1990, dated 1992).

Test [1] concerns the target T1, Arabidopsis EPSP synthase with the alanine for glycine substitution at position 101 (Arabidopsis thaliana, UniProt P05466, G177A).
T1 construct: the expressed Arabidopsis EPSP synthase would include the alanine for glycine substitution at position 101 of the mature enzyme; expressed in transfected cells; host or cells: Brassica napus calli transformed by Agrobacterium harboring pMON600, protein extract
The test is described as follows: EPSP synthase activity in protein extracts of Brassica napus calli transformed with pMON600. Type of test: biochemical. How it is done:
The Agrobacterium harboring the pMON600 plasmid was used to transform explants of Brassica napus. Three gentamicin resistant calli were obtained. […] Proteins were extracted from samples of the calli and were assayed for EPSP synthase activity. All three of the calli contained EPSP synthase activity that was resistant to 0.5 mM glyphosate.
(§1) The EPSP synthase in the extracts was further characterized by titrating the resistance to glyphosate.

Test [2] deals with petunia leaf disks transformed with CaMV35S/EPSP synthase gene (pMON546). The test is described as follows: Callus growth of petunia leaf disks on glyphosate media, transformed with pMON546. It is filed as cell-based. The method, then: Leaf disks with diameters of 6 mm (1/4 inch) were taken from surface-sterilized petunia leaves. They were cultivated on MS104 agar medium for 2 days to promote partial cell wall formation at the wound surfaces. They were then submerged in a culture of A. tumefaciens cells containing both pMON546 and GV3111-SE which had been grown overnight in Luria broth at 28° C., and shaken gently. The cells were removed from the bacterial suspension, blotted dry, and incubated upside down on filter paper placed over "nurse" cultures of tobacco cells, as described in Horsch (1980). After 2 or 3 days, the disks were transferred to petri dishes containing MS media with 500 μg/ml carbenicillin and 0., 0.1, 0.25, or 0.5 mM glyphosate (sodium salt), with no nurse cultures.
Control tissue was created using A. tumefaciens cells containing the helper plasmid pGV3111-SE and a different plant transformation vector, pMON505, which contained a T-DNA region with a NOS/NPTII/NOS kanamycin resistance gene and a NOS selectable marker gene identical to pMON546, but without the CaMV35S/EPSP synthase gene.
Within 10 days after transfer to the media containing glyphosate, actively growing callus tissue appeared on the periphery of all disks on the control plate containing no glyphosate. […] This confirms that the CaMV35S/EPSP synthase gene conferred glyphosate resistance upon the transformed cells.

In test [3] the target is T2, glyphosate-tolerant petunia EPSP synthase (alanine for glycine at position 101) (Petunia hybrida, UniProt P11043, G173A).
T2 construct: made in house; host or cells: E. coli (overproducing), extract
T2 sequence (P11043 73-516 G173A): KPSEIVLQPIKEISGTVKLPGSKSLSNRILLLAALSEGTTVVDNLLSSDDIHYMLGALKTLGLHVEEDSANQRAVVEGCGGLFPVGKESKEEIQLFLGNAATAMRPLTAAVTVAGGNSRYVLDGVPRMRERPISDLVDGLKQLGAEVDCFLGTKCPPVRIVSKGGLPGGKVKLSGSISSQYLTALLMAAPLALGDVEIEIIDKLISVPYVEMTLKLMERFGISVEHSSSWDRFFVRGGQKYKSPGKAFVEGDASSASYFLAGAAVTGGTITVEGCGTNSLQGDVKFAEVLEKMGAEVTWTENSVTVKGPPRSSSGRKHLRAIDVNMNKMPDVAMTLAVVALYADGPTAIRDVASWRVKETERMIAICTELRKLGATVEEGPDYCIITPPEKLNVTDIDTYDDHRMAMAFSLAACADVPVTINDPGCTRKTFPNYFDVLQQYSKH
The test is described as follows: EPSP synthase inhibition, petunia enzyme carrying the alanine for glycine substitution. It is filed as biochemical.
Text: as §1

Test [4] has as its target petunia EPSP synthase with alanine for the first glycine of the conserved region (Petunia hybrida, UniProt P11043, G170A). The test is described as follows: Glyphosate sensitivity of petunia EPSP synthase with alanine for the first glycine of the conserved region. It is filed as biochemical. The settings on record: alanine inserted for the first glycine of the conserved region. The source says:
The EPSP synthase sequences shown in FIG. 2 represent a broad evolutionary range of source materials for EPSP synthases. […] However, those skilled in the art will recognize that a particular EPSP synthase may be produced by and isolated from another source material which may not have the exact sequence of the conserved region.

Test [5] deals with tobacco plants transformed with glyphosate-tolerant petunia EPSP synthase gene (pMON567). Briefly: Relative effect of glyphosate spray on transformed tobacco, glyphosate-tolerant gene. Further details: key: 0 = total kill, 10 = normal unsprayed plant. Type of test: in vivo, Nicotiana tabacam CV H425. Particulars: GT. An excerpt:
A culture of A. tumefaciens cells containing pMON567/pGV3111-SE was contacted with leaf disks taken from tobacco plants (Nicotiana tabacam CV H425) as described by Horsch (1985). The Agrobacterium cells inserted the mutant EPSP synthase gene into the chromosomes of the plant cells. Plant cells resistant to kanamycin were selected and regenerated into differentiated plants by the procedure of Horsch (1985).
Progeny of these plants were propagated and grown to a rosette diameter of about 10 cm corresponding to a plant age of about four weeks. […] […] The effect was translated to a numerical scale of 0-10 in which 0 represents total kill and 10 is the normal, unsprayed plant. […] The values represent the best transformant for both wild-type EPSP synthase and glyphosate-tolerant EPSP synthase genes.

T1 sequence (P05466 77-520 G177A): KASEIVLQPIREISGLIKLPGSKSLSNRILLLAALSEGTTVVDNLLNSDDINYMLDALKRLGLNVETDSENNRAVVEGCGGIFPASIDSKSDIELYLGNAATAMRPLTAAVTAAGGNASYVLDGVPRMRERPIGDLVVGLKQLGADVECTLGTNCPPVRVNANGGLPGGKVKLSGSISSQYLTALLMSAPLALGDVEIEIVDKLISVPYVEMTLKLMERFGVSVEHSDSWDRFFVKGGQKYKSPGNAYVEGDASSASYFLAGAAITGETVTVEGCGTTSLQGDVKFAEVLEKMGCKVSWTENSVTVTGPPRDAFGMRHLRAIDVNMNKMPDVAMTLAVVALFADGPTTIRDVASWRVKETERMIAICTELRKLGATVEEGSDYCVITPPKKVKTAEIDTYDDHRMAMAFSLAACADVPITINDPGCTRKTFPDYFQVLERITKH
Sequence of petunia EPSP synthase with alanine for the first glycine of the conserved region (P11043 73-516 G170A): as the sequence (P11043 73-516 G173A) above, with G98A, A101G counted along it

For `O=C(O)CNCP(=O)(O)O` [glyphosate, N-phosphonomethylglycine], the IC50 – broadly, the concentration that gives 50% inhibition – came out at 7.5 mM in test [1] and 16 mM in test [3]. In test [1] (0.5 mM glyphosate, all three calli), the “EPSP synthase activity in the presence of glyphosate” value is reported as “resistant”. Also, the “callus growth, control disks versus transformed tissue” value in test [2] (0.1 mM glyphosate, within 10 days after transfer) was “little detectable difference”. Also, the callus growth is listed as “substantial growth” in test [2] (0.25 mM glyphosate, transformed tissue) and “a significant number of calli grew” in test [2] (0.5 mM glyphosate, transformed disks). Besides, the “change in glyphosate sensitivity versus wild-type petunia EPSP synthase” value in test [4] is listed as “no attendant changes in glyphosate sensitivity”. Further, the “Relative effect of glyphosate (0 total kill, 10 no effect)” value in test [5] (0.4 Pounds/Acre, Day 7, best transformant) amounted to 8.0; in test [5] (0.4 Pounds/Acre, Day 14, best transformant), 8.0; in test [5] (0.4 Pounds/Acre, Day 28, best transformant), 9.0; in test [5] (2.0 Pounds/Acre, Day 7, best transformant) it was 8.0; in test [5] (2.0 Pounds/Acre, Day 14, best transformant), 8.3; in test [5] (2.0 Pounds/Acre, Day 28, best transformant) it was 7.0. The “Relative effect of glyphosate (0 total kill, 10 no effect)” value in test [5] (3.6 Pounds/Acre, Day 7, best transformant) worked out at 5.0; in test [5] (3.6 Pounds/Acre, Day 14, best transformant), 7.4; in test [5] (3.6 Pounds/Acre, Day 28, best transformant) it was 7.0.
